Data from ChEMBL document CHEMBL1201861, “Genomics of Drug Sensitity in Cancer screening data, Wellcome Trust Sanger Institute”.

Experiments:
[1] = system: SIMA; experiment: cells; type: functional, cell-based, Homo sapiens; details: Homo sapiens, SIMA;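 note: growth inhibition of SIMA cells, measured with a cell viability readout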
Description: SANGER: Inhibition of human SIMA cell growth in a cell viability assay.

[2] = system: MEL-JUSO; experiment: cells; type: functional, cell-based, Homo sapiens; details: Homo sapiens, MEL-JUSO;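 note: growth inhibition of human MEL-JUSO cells, read out with a cell viability assay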
Description: SANGER: Inhibition of human MEL-JUSO cell growth in a cell viability assay.

[3] = system: DG-75; experiment: cells; type: functional, cell-based; details: Homo sapiens;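 note: growth inhibition of DG-75 cells, read out with a cell viability assay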
Description: SANGER: Inhibition of human DG-75 cell growth in a cell viability assay.

[4] = system: LU-165; experiment: cells; type: functional, cell-based; details: Homo sapiens
Description: SANGER: Inhibition of human LU-165 cell growth in a cell viability assay.

[5] = system: THP-1; experiment: cells; type: functional, cell-based; details: Homo sapiens;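 note: growth inhibition of THP-1 cells, read out via a cell viability assay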
Description: SANGER: Inhibition of human THP-1 cell growth in a cell viability assay.

[6] = system: NCI-H1417; experiment: cells; type: functional, cell-based; details: Homo sapiens;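 note: human NCI-H1417 cells, growth inhibition determined with a cell viability readout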
Description: SANGER: Inhibition of human NCI-H1417 cell growth in a cell viability assay.

[7] = system: EB-3; experiment: cells; type: functional, cell-based; details: Homo sapiens;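 note: human EB-3 cells, growth inhibition read out via a cell viability assay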
Description: SANGER: Inhibition of human EB-3 cell growth in a cell viability assay.

[8] = system: HT55; experiment: cells; type: functional, cell-based, Homo sapiens; details: Homo sapiens, HT55;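 note: cell viability readout measuring growth inhibition of human HT55 cells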
Description: SANGER: Inhibition of human HT55 cell growth in a cell viability assay.

[9] = system: NCI-H460; experiment: cells; type: functional, cell-based, Homo sapiens; details: Homo sapiens, NCI-H460;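 note: cell viability assay scoring growth inhibition of human NCI-H460 cells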
Description: SANGER: Inhibition of human NCI-H460 cell growth in a cell viability assay.

[10] = system: NCI-H748; experiment: cells; type: functional, cell-based; details: Homo sapiens;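 note: growth inhibition of NCI-H748 cells, measured by a cell viability assay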
Description: SANGER: Inhibition of human NCI-H748 cell growth in a cell viability assay.

[11] = system: SJRH30; experiment: cells; type: functional, cell-based; details: Homo sapiens;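 note: growth inhibition of human SJRH30 cells, read out with a cell viability assay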
Description: SANGER: Inhibition of human SJRH30 cell growth in a cell viability assay.

[12] = system: SK-MM-2; experiment: cells; type: functional, cell-based; details: Homo sapiens;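 note: growth inhibition of human SK-MM-2 cells, read out with a cell viability assay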
Description: SANGER: Inhibition of human SK-MM-2 cell growth in a cell viability assay.

[13] = system: IM-9; experiment: SANGER: Inhibition of human IM-9 cell growth in a cell viability assay.; type: functional, cell-based
[14] = system: G-361; experiment: cells; type: functional, cell-based, Homo sapiens; details: Homo sapiens, G-361
[15] = system: NCI-H1436; experiment: cells; type: functional, cell-based; details: Homo sapiens;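 note: growth suppression of human NCI-H1436 cells, determined with a cell viability readout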
Description: SANGER: Inhibition of human NCI-H1436 cell growth in a cell viability assay.

[16] = system: BL-41; experiment: cells; type: functional, cell-based; details: Homo sapiens;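 note: growth inhibition of human BL-41 cells, read out with a cell viability assay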
Description: SANGER: Inhibition of human BL-41 cell growth in a cell viability assay.

[17] = system: LB647-SCLC; experiment: cells; type: functional, cell-based; details: Homo sapiens;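 note: cell growth inhibition, read out by a viability assay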
Description: SANGER: Inhibition of human LB647-SCLC cell growth in a cell viability assay.

[18] = system: RPMI 8402; experiment: SANGER: Inhibition of human RPMI-8402 cell growth in a cell viability assay.; type: functional, cell-based
[19] = system: Kasumi 1; experiment: cells; type: functional, cell-based; details: Homo sapiens;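 note: growth inhibition of human Kasumi-1 cells, read out by a cell viability assay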
Description: SANGER: Inhibition of human KASUMI-1 cell growth in a cell viability assay.

[20] = system: NCI-H345; experiment: cells; type: functional, cell-based; details: Homo sapiens;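 note: growth inhibition of NCI-H345 cells measured with a cell viability assay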
Description: SANGER: Inhibition of human NCI-H345 cell growth in a cell viability assay.

[21] = system: MHH-CALL-2; experiment: cells; type: functional, cell-based; details: Homo sapiens;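 note: growth inhibition of the cell line, read out in a cell viability assay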
Description: SANGER: Inhibition of human MHH-CALL-2 cell growth in a cell viability assay.

[22] = system: DMS-153; experiment: cells; type: functional, cell-based; details: Homo sapiens
Description: SANGER: Inhibition of human DMS-153 cell growth in a cell viability assay.

[23] = system: EVSA-T; experiment: cells; type: functional, cell-based, Homo sapiens; details: Homo sapiens, EVSA-T;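 note: growth inhibition of EVSA-T cells, read out with a cell viability assay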
Description: SANGER: Inhibition of human EVSA-T cell growth in a cell viability assay.

[24] = system: NCI-H1703; experiment: cells; type: functional, cell-based, Homo sapiens; details: Homo sapiens, NCI-H1703;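 note: growth inhibition of NCI-H1703 cells, read out via a cell viability assay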
Description: SANGER: Inhibition of human NCI-H1703 cell growth in a cell viability assay.

[25] = system: SCLC-21H; experiment: cells; type: functional, cell-based; details: Homo sapiens;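 note: growth inhibition of cultured human SCLC-21H cells, read out with a cell viability assay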
Description: SANGER: Inhibition of human SCLC-21H cell growth in a cell viability assay.

[26] = system: SCC-3; experiment: cells; type: functional, cell-based; details: Homo sapiens;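 note: cell viability assay measuring inhibition of SCC-3 cell growth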
Description: SANGER: Inhibition of human SCC-3 cell growth in a cell viability assay.

[27] = system: NCI-H64; experiment: cells; type: functional, cell-based; details: Homo sapiens;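 note: growth inhibition of NCI-H64 cells, read out with a cell viability assay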
Description: SANGER: Inhibition of human NCI-H64 cell growth in a cell viability assay.

[28] = system: NCI-H2009; experiment: cells; type: functional, cell-based, Homo sapiens; details: Homo sapiens, NCI-H2009;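 note: cell viability assay measuring inhibition of NCI-H2009 cell growth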
Description: SANGER: Inhibition of human NCI-H2009 cell growth in a cell viability assay.

[29] = system: LOUCY; experiment: cells; type: functional, cell-based; details: Homo sapiens;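 note: growth inhibition of human LOUCY cells, read out with a cell viability assay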
Description: SANGER: Inhibition of human LOUCY cell growth in a cell viability assay.

[30] = system: ARH-77; experiment: cells; type: functional, cell-based; details: Homo sapiens;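 note: growth inhibition of ARH-77 cells, read out by a cell viability assay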
Description: SANGER: Inhibition of human ARH-77 cell growth in a cell viability assay.

[31] = system: NCI-H1694; experiment: cells; type: functional, cell-based; details: Homo sapiens;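 note: cell viability assay measuring inhibition of growth in human NCI-H1694 cells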
Description: SANGER: Inhibition of human NCI-H1694 cell growth in a cell viability assay.

[32] = system: CA46; experiment: cells; type: functional, cell-based; details: Homo sapiens;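 note: growth inhibition of human CA46 cells, read out by a cell viability assay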
Description: SANGER: Inhibition of human CA46 cell growth in a cell viability assay.

[33] = system: CAL-148; experiment: cells; type: functional, cell-based; details: Homo sapiens
Description: SANGER: Inhibition of human CAL-148 cell growth in a cell viability assay.

[34] = system: NB1; experiment: cells; type: functional, cell-based; details: Homo sapiens;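 note: reduction of NB1 cell proliferation, read out with a viability assay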
Description: SANGER: Inhibition of human NB1 cell growth in a cell viability assay.

[35] = system: SUP-T1; experiment: cells; type: functional, cell-based; details: Homo sapiens;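 note: growth inhibition of human SUP-T1 cells, read out as cell viability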
Description: SANGER: Inhibition of human SUP-T1 cell growth in a cell viability assay.

[36] = system: NCI-H2141; experiment: cells; type: functional, cell-based; details: Homo sapiens;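 note: growth inhibition of human NCI-H2141 cells, read out with a cell viability assay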
Description: SANGER: Inhibition of human NCI-H2141 cell growth in a cell viability assay.

[37] = system: TE-15; experiment: cells; type: functional, cell-based; details: Homo sapiens;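 note: cell viability readout of growth inhibition in TE-15 cells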
Description: SANGER: Inhibition of human TE-15 cell growth in a cell viability assay.

[38] = system: NCI-H1522; experiment: cells; type: functional, cell-based; details: Homo sapiens;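 note: growth inhibition of NCI-H1522 cells, read out with a cell viability assay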
Description: SANGER: Inhibition of human NCI-H1522 cell growth in a cell viability assay.

[39] = system: GDM-1; experiment: cells; type: functional, cell-based; details: Homo sapiens;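 note: cell viability readout used to measure growth inhibition of human GDM-1 cells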
Description: SANGER: Inhibition of human GDM-1 cell growth in a cell viability assay.

[40] = system: REH; experiment: cells; type: functional, cell-based; details: Homo sapiens;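 note: growth inhibition of REH cells determined with a cell viability read-out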
Description: SANGER: Inhibition of human REH cell growth in a cell viability assay.

[41] = system: ST486; experiment: SANGER: Inhibition of human ST486 cell growth in a cell viability assay.; type: functional, cell-based
[42] = system: NCI-H889; experiment: cells; type: functional, cell-based; details: Homo sapiens;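 note: cell growth inhibition of the cell line, read out with a viability assay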
Description: SANGER: Inhibition of human NCI-H889 cell growth in a cell viability assay.

[43] = system: NCI-H2081; experiment: cells; type: functional, cell-based; details: Homo sapiens;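 note: growth inhibition of human NCI-H2081 cells, read out with a cell viability assay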
Description: SANGER: Inhibition of human NCI-H2081 cell growth in a cell viability assay.

[44] = system: CHP-126; experiment: cells; type: functional, cell-based; details: Homo sapiens
Description: SANGER: Inhibition of human CHP-126 cell growth in a cell viability assay.

[45] = system: K052; experiment: cells; type: functional, cell-based; details: Homo sapiens;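 note: Read-out from a cell viability assay, IC50 reflecting suppression of K052 cell growth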
Description: SANGER: Inhibition of human K052 cell growth in a cell viability assay.

[46] = system: KMS-12-PE; experiment: cells; type: functional, cell-based; details: Homo sapiens;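 note: growth inhibition of human KMS-12-PE cells, measured with a cell viability assay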
Description: SANGER: Inhibition of human KMS-12-PE cell growth in a cell viability assay.

[47] = system: MONO-MAC-6; experiment: cells; type: functional, cell-based; details: Homo sapiens;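 note: cell viability assay measuring growth inhibition of human MONO-MAC-6 cells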
Description: SANGER: Inhibition of human MONO-MAC-6 cell growth in a cell viability assay.

[48] = system: NCI-H2171; experiment: cells; type: functional, cell-based; details: Homo sapiens;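 note: growth inhibition of human NCI-H2171 cells, read out by a cell viability assay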
Description: SANGER: Inhibition of human NCI-H2171 cell growth in a cell viability assay.

[49] = system: TE-441-T; experiment: cells; type: functional, cell-based; details: Homo sapiens
Description: SANGER: Inhibition of human TE-441-T cell growth in a cell viability assay.

[50] = system: BC-3; experiment: cells; type: functional, cell-based; details: Homo sapiens;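 note: cell viability assay measuring growth inhibition of human BC-3 cells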
Description: SANGER: Inhibition of human BC-3 cell growth in a cell viability assay.

Structure (SMILES): CN(c1ncccc1CNc1nc(Nc2ccc3c(c2)CC(=O)N3)ncc1C(F)(F)F)S(C)(=O)=O [PF-00562271]
- IC50 [1]: > 2.56 µM
- IC50 [2]: 1.73 µM
- IC50 [3]: > 2.56 µM
- IC50 [4]: > 2.56 µM
- IC50 [5]: > 2.56 µM
- IC50 [6]: > 2.56 µM
- IC50 [7]: > 2.56 µM
- IC50 [8]: > 2.56 µM
- IC50 [9]: 2.05 µM
- IC50 [10]: > 2.56 µM
- IC50 [11]: > 2.56 µM
- IC50 [12]: > 2.56 µM
- IC50 [13]: > 2.56 µM
- IC50 [14]: > 2.56 µM
- IC50 [15]: > 2.56 µM
- IC50 [16]: > 2.56 µM
- IC50 [17]: > 2.56 µM
- IC50 [18]: > 2.56 µM
- IC50 [19]: 2.33 µM
- IC50 [20]: > 2.56 µM
- IC50 [21]: > 2.56 µM
- IC50 [22]: > 2.56 µM
- IC50 [23]: > 2.56 µM
- IC50 [24]: > 2.56 µM
- IC50 [25]: > 2.56 µM
- IC50 [26]: > 2.56 µM
- IC50 [27]: > 2.56 µM
- IC50 [28]: > 2.56 µM
- IC50 [29]: 2.26 µM
- IC50 [30]: > 2.56 µM
- IC50 [31]: > 2.56 µM
- IC50 [32]: > 2.56 µM
- IC50 [33]: > 2.56 µM
- IC50 [34]: > 2.56 µM
- IC50 [35]: > 2.56 µM
- IC50 [36]: > 2.56 µM
- IC50 [37]: > 2.56 µM
- IC50 [38]: > 2.56 µM
- IC50 [39]: > 2.56 µM
- IC50 [40]: > 2.56 µM
- IC50 [41]: 1.53 µM
- IC50 [42]: > 2.56 µM
- IC50 [43]: > 2.56 µM
- IC50 [44]: > 2.56 µM
- IC50 [45]: > 2.56 µM
- IC50 [46]: > 2.56 µM
- IC50 [47]: 2.41 µM
- IC50 [48]: > 2.56 µM
- IC50 [49]: > 2.56 µM
- IC50 [50]: > 2.56 µM

Structure (SMILES): CCC1=C[C@@H]2CN(C1)Cc1c([nH]c3ccccc13)[C@@](C(=O)OC)(c1cc3c(cc1OC)N(C)[C@H]1[C@@](O)(C(=O)OC)[C@H](OC(C)=O)[C@]4(CC)C=CCN5CC[C@]31[C@@H]54)C2 [VINORELBINE]
- IC50 [1]: > 0.064 µM
- IC50 [2]: 0.00426 µM
- IC50 [3]: > 0.064 µM
- IC50 [4]: > 0.064 µM
- IC50 [5]: > 0.064 µM
- IC50 [6]: 0.0241 µM
- IC50 [7]: > 0.064 µM
- IC50 [8]: > 0.064 µM
- IC50 [9]: 0.00698 µM
- IC50 [10]: 0.057 µM
- IC50 [11]: 0.0293 µM
- IC50 [12]: > 0.064 µM
- IC50 [13]: > 0.064 µM
- IC50 [14]: 0.00353 µM
- IC50 [15]: 0.0136 µM
- IC50 [16]: 0.00528 µM
- IC50 [17]: 0.00689 µM
- IC50 [18]: 0.0123 µM
- IC50 [19]: 0.0177 µM
- IC50 [20]: 0.0449 µM
- IC50 [21]: > 0.064 µM
- IC50 [22]: > 0.064 µM
- IC50 [23]: > 0.064 µM
- IC50 [24]: 0.00283 µM
- IC50 [25]: > 0.064 µM
- IC50 [26]: > 0.064 µM
- IC50 [27]: 0.00727 µM
- IC50 [28]: 0.00846 µM
- IC50 [29]: 0.00969 µM
- IC50 [30]: 0.0178 µM
- IC50 [31]: 0.0444 µM
- IC50 [32]: 0.0222 µM
- IC50 [33]: 0.0154 µM
- IC50 [34]: 0.0261 µM
- IC50 [35]: 0.00472 µM
- IC50 [36]: 0.039 µM
- IC50 [37]: 0.0031 µM
- IC50 [38]: > 0.064 µM
- IC50 [39]: 0.0246 µM
- IC50 [40]: 0.00721 µM
- IC50 [41]: 0.00296 µM
- IC50 [42]: 0.0403 µM
- IC50 [43]: 0.0336 µM
- IC50 [44]: > 0.064 µM
- IC50 [45]: 0.0212 µM
- IC50 [46]: 0.0601 µM
- IC50 [47]: 0.0206 µM
- IC50 [48]: > 0.064 µM
- IC50 [49]: 0.0349 µM
- IC50 [50]: 0.0311 µM
